# Like-named read-outs stand apart in the source and are kept apart here.
# How the values were obtained:
# mammalian cell lines = conditions: cited from earlier work
# Pneumocystis = conditions: cited from earlier work
# hERG [1] = target: T1, hERG (Homo sapiens, UniProt Q12809); experiment: Western blot of hERG maturation; type: cell-based; conditions: 24 h, HEK-hERG; for hERG maturation (mature/immature ratio), dose–response: 0.5–20 μM
# hERG [2] = target: T1, hERG; experiment: Immunofluorescence microscopy of hERG localization in HEK-hERG cells; type: cell-based; conditions: 24 h, pentamidine 10 μM, analogues 10 μM
# T1 sequence (Q12809 whole entry): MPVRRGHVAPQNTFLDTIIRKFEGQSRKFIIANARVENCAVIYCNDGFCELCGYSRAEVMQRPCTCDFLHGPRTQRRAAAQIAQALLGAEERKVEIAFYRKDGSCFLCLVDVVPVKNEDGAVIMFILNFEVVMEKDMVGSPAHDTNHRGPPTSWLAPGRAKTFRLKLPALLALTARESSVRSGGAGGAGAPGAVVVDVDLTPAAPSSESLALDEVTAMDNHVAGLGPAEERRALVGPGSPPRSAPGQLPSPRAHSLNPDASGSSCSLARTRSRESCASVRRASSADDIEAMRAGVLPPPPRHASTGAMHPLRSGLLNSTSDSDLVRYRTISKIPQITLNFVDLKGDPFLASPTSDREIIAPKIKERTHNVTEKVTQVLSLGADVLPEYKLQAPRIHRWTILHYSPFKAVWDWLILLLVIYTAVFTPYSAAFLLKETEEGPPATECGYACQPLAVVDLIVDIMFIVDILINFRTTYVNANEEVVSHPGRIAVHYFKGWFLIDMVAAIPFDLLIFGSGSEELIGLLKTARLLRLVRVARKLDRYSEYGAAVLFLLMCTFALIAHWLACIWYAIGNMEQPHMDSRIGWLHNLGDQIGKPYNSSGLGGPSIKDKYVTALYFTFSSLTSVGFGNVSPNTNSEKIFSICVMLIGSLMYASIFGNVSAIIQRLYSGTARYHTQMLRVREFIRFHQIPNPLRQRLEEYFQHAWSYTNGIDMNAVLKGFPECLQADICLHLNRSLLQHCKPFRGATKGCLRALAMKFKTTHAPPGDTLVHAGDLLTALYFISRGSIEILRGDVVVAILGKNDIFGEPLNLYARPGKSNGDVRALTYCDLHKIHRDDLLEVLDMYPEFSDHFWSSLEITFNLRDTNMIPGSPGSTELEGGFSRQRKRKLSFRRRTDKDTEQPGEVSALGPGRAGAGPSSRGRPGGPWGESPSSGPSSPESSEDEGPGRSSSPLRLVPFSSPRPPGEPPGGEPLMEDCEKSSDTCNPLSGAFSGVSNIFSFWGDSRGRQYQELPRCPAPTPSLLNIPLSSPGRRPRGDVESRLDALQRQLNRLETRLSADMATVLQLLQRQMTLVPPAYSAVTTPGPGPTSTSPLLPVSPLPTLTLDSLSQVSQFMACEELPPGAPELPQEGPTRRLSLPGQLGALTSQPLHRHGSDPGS
SMILES,"hERG maturation (mature/immature ratio), dose–response (hERG [1])",cytotoxicity (mammalian cell lines; mammalian cell lines),subcellular localization / membrane expression of hERG (hERG [2]),other results
"Cc1cc(C(=N)N)cc(C)c1OCCN(CCOc1c(C)cc(C(=N)N)cc1C)S(=O)(=O)c1ccccc1.Cl.Cl [3-phenylsulfonyl-1,5-bis(4-amidino-2,6-dimethylphenoxy)-3-azapentane dihydrochloride, reference compound]",,,,cytotoxicity (mammalian cell lines): very low cytotoxicity; anti-Pneumocystis activity (Pneumocystis): promising activity
"Cl.Cl.N=C(N)c1ccc(OCCSCCOc2ccc(C(=N)N)cc2)cc1 [Compound 1, 1,5-bis(4-amidinophenoxy)-3-thiapentane dihydrochloride]",dose-dependently decreased,less or moderate cytotoxicity,pattern comparable with control cells and clear membrane staining was detected,
"Cl.Cl.N=C(N)c1ccc(SCCOCCSc2ccc(C(=N)N)cc2)cc1 [Compound 2, 1,5-bis[4-(amidino)phenylthio]-3-oxapentane dihydrochloride]",dose-dependently decreased,,pattern comparable with control cells and clear membrane staining was detected,
"Cl.Cl.c1cc(C2=NCCN2)ccc1OCCSCCOc1ccc(C2=NCCN2)cc1 [Compound 4, 1,5-bis[4-(4,5-dihydro-2-imidazolyl)phenoxy]-3-thiapentane dihydrochloride]",,less or moderate cytotoxicity,,
"CN(CCOc1ccc(NS(C)(=O)=O)cc1)CCc1ccc(NS(C)(=O)=O)cc1 [Dofetilide, reference compound]",,,,"hERG maturation (mature/immature ratio) (hERG [1]; pentamidine 10 μM, dofetilide 1 μM, analogues 1 and 10 μM): increases"
